PubChem BioAssay AID1963440 (Molecular Pharmacology Branch, DTP, NCI, 2024)

System: NCI-H1417 complex spheroids, growth % test/control
Experiment: Anticancer human tumor NCI-H1417 cell line growth inhibition [Asc];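 note: spheroids exposed to compounds for 7 days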;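 for viability, T/C: 100% = DMSO vehicle control wells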
Details: for IC50: curve of first compound; for viability, T/C: stronger effect = lower value
In short: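 Complex solid-tumor spheroids incorporating human endothelial and mesenchymal stem cells received single agents or combinations over half-log dilution ranges anchored to clinical Cmax.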

[1] = second compound 0.03 µM, first compound 0.0316 µM
[2] = second compound 0.03 µM, first compound 0.1 µM
[3] = second compound 0.03 µM, first compound 0.316 µM
[4] = second compound 0.03 µM, first compound 1 µM
[5] = second compound 0.03 µM, first compound 3.16 µM
[6] = second compound 0.03 µM, first compound 10 µM
[7] = second compound 0.0949 µM, first compound 0.0316 µM
[8] = second compound 0.0949 µM, first compound 0.1 µM
[9] = second compound 0.0949 µM, first compound 0.316 µM
[10] = second compound 0.0949 µM, first compound 1 µM
[11] = second compound 0.0949 µM, first compound 3.16 µM
[12] = second compound 0.0949 µM, first compound 10 µM
[13] = second compound 0.3 µM, first compound 0.0316 µM
[14] = second compound 0.3 µM, first compound 0.1 µM
[15] = second compound 0.3 µM, first compound 0.316 µM
[16] = second compound 0.3 µM, first compound 1 µM
[17] = second compound 0.3 µM, first compound 3.16 µM
[18] = second compound 0.3 µM, first compound 10 µM
[19] = second compound 0.949 µM, first compound 0.0316 µM
[20] = second compound 0.949 µM, first compound 0.1 µM
[21] = second compound 0.949 µM, first compound 0.316 µM
[22] = second compound 0.949 µM, first compound 1 µM
[23] = second compound 0.949 µM, first compound 3.16 µM
[24] = second compound 0.949 µM, first compound 10 µM
[25] = second compound 3 µM, first compound 0.0316 µM
[26] = second compound 3 µM, first compound 0.1 µM
[27] = second compound 3 µM, first compound 0.316 µM
[28] = second compound 3 µM, first compound 1 µM
[29] = second compound 3 µM, first compound 3.16 µM
[30] = second compound 3 µM, first compound 10 µM
[31] = second compound 0.03 µM, first compound 0.00316 µM
[32] = second compound 0.03 µM, first compound 0.01 µM
[33] = second compound 0.0949 µM, first compound 0.00316 µM
[34] = second compound 0.0949 µM, first compound 0.01 µM
[35] = second compound 0.3 µM, first compound 0.00316 µM
[36] = second compound 0.3 µM, first compound 0.01 µM
[37] = second compound 0.949 µM, first compound 0.00316 µM
[38] = second compound 0.949 µM, first compound 0.01 µM
[39] = second compound 3 µM, first compound 0.00316 µM
[40] = second compound 3 µM, first compound 0.01 µM

Row | IC50 (second compound 0.03 µM) [µM] | IC50 (second compound 0.0949 µM) [µM] | IC50 (second compound 0.3 µM) [µM] | IC50 (second compound 0.949 µM) [µM] | IC50 (second compound 3 µM) [µM] | SMILES | viability, T/C [1] [%] | viability, T/C [2] [%] | viability, T/C [3] [%] | viability, T/C [4] [%] | viability, T/C [7] [%] | viability, T/C [8] [%] | viability, T/C [9] [%] | viability, T/C [10] [%] | viability, T/C [13] [%] | viability, T/C [14] [%] | viability, T/C [15] [%] | viability, T/C [16] [%] | viability, T/C [19] [%] | viability, T/C [20] [%] | viability, T/C [21] [%] | also measured
1 | > 10 | > 10 | > 10 | > 10 | > 10 | C=CC(=O)N1CCN(c2nc(=O)n(-c3c(C)ccnc3C(C)C)c3nc(-c4c(O)cccc4F)c(F)cc23)C(C)C1 (stereo not given) + CCN1C(C(=O)NC23CCC(C(=O)O)(CC2)CC3)C(c2cccc(Cl)c2F)C2(C(=O)Nc3cc(Cl)ccc32)C12CCCCC2 | 94.4 | 100 | 109 | 101 | 102 | 94.4 | 98.4 | 101 | 102 | 107 | 106 | 94.3 | 94.3 | 95.4 | 93.1 | viability, T/C [5]: 115%; viability, T/C [6]: 105%; viability, T/C [11]: 104%; viability, T/C [12]: 119%; viability, T/C [17]: 99.8%; viability, T/C [18]: 112%; viability, T/C [22]: 97.9%; viability, T/C [23]: 95.5%; viability, T/C [24]: 99.5%; viability, T/C [25]: 91.6%; viability, T/C [26]: 93.2%; viability, T/C [27]: 98.5%; viability, T/C [28]: 93.7%; viability, T/C [29]: 93.4%; viability, T/C [30]: 103%
2 | > 1 | > 1 | > 1 | 0.484 | 0.243 | COc1c(OCCCN2CCOCC2)ccc2c3n(c(=NC(=O)c4cnc(N)nc4)nc12)CCN3 + CCN1C(C(=O)NC23CCC(C(=O)O)(CC2)CC3)C(c2cccc(Cl)c2F)C2(C(=O)Nc3cc(Cl)ccc32)C12CCCCC2 | 95.8 | 100 | 96.7 | 59.2 | 87.2 | 90.3 | 80.5 | 58.7 | 81.2 | 74.8 | 57.6 | 51.5 | 81 | 64.9 | 55.8 | viability, T/C [31]: 107%; viability, T/C [32]: 114%; viability, T/C [33]: 94.6%; viability, T/C [34]: 96.7%; viability, T/C [35]: 93.2%; viability, T/C [36]: 93.6%; viability, T/C [37]: 89.6%; viability, T/C [38]: 92.2%; viability, T/C [22]: 43.6%; viability, T/C [39]: 92.4%; viability, T/C [40]: 89.8%; viability, T/C [25]: 86.7%; viability, T/C [26]: 63.1%; viability, T/C [27]: 47.7%; viability, T/C [28]: 36%

Continued, compound first:

Row | SMILES | IC50 (second compound 0.03 µM) [µM] | IC50 (second compound 0.0949 µM) [µM] | IC50 (second compound 0.3 µM) [µM] | IC50 (second compound 0.949 µM) [µM] | IC50 (second compound 3 µM) [µM] | viability, T/C [1] [%] | viability, T/C [2] [%] | viability, T/C [3] [%] | viability, T/C [4] [%] | viability, T/C [7] [%] | viability, T/C [8] [%] | viability, T/C [9] [%] | viability, T/C [10] [%] | viability, T/C [13] [%] | viability, T/C [14] [%] | viability, T/C [15] [%] | viability, T/C [16] [%] | viability, T/C [19] [%] | viability, T/C [20] [%] | viability, T/C [21] [%] | also measured
3 | C#Cc1c(F)ccc2cc(O)cc(-c3ncc4c(N5CC6CCC(C5)N6)nc(OCC56CCCN5CC(F)C6)nc4c3F)c12 (stereo not given) + CCN1C(C(=O)NC23CCC(C(=O)O)(CC2)CC3)C(c2cccc(Cl)c2F)C2(C(=O)Nc3cc(Cl)ccc32)C12CCCCC2 | > 10 | > 10 | > 10 | > 10 | > 10 | 101 | 106 | 106 | 102 | 107 | 103 | 93.9 | 95.2 | 98.2 | 94.7 | 94.8 | 105 | 88.2 | 96.9 | 97.3 | viability, T/C [5]: 103%; viability, T/C [6]: 111%; viability, T/C [11]: 108%; viability, T/C [12]: 109%; viability, T/C [17]: 108%; viability, T/C [18]: 108%; viability, T/C [22]: 88.3%; viability, T/C [23]: 84%; viability, T/C [24]: 77.3%; viability, T/C [25]: 91%; viability, T/C [26]: 88.1%; viability, T/C [27]: 105%; viability, T/C [28]: 88.7%; viability, T/C [29]: 89.5%; viability, T/C [30]: 95.7%
4 | C=C(F)C(=O)N1CCN(c2nc(OCC3CCCN3C)nc3c2CCN(c2cccc4cccc(Cl)c24)C3)CC1CC#N (stereo not given) + CCN1C(C(=O)NC23CCC(C(=O)O)(CC2)CC3)C(c2cccc(Cl)c2F)C2(C(=O)Nc3cc(Cl)ccc32)C12CCCCC2 | 3.58 | 3.25 | 3.33 | 2.77 | 2.25 | 107 | 111 | 102 | 95.4 | 97.9 | 93.6 | 100 | 91 | 103 | 98.5 | 97.4 | 87 | 100 | 102 | 85.5 | viability, T/C [5]: 55.8%; viability, T/C [6]: 0.19%; viability, T/C [11]: 51.3%; viability, T/C [12]: 0.19%; viability, T/C [17]: 52.3%; viability, T/C [18]: 0.17%; viability, T/C [22]: 82.4%; viability, T/C [23]: 44.9%; viability, T/C [24]: 0.19%; viability, T/C [25]: 93.3%; viability, T/C [26]: 89.9%; viability, T/C [27]: 86.1%; viability, T/C [28]: 79.1%; viability, T/C [29]: 37.8%; viability, T/C [30]: 0.4%
5 | CNC(C)C(=O)NC1CN(S(=O)(=O)c2cccc(S(=O)(=O)N3CCC4CCC(C(=O)NC(c5ccccc5)c5ccccc5)N4C(=O)C(NC(=O)C(C)NC)C3)c2)CCC2CCC(C(=O)NC(c3ccccc3)c3ccccc3)N2C1=O (stereo not given) + CCN1C(C(=O)NC23CCC(C(=O)O)(CC2)CC3)C(c2cccc(Cl)c2F)C2(C(=O)Nc3cc(Cl)ccc32)C12CCCCC2 | > 1 | > 1 | > 1 | > 1 | > 1 | 112 | 111 | 99.8 | 109 | 108 | 91.5 | 101 | 115 | 94.6 | 104 | 105 | 100 | 93.4 | 97.5 | 87.1 | viability, T/C [31]: 121%; viability, T/C [32]: 107%; viability, T/C [33]: 101%; viability, T/C [34]: 94.8%; viability, T/C [35]: 116%; viability, T/C [36]: 118%; viability, T/C [37]: 97%; viability, T/C [38]: 98.9%; viability, T/C [22]: 91.1%; viability, T/C [39]: 97.2%; viability, T/C [40]: 98.8%; viability, T/C [25]: 91.8%; viability, T/C [26]: 90.8%; viability, T/C [27]: 84.2%; viability, T/C [28]: 99.4%
